Reference: PubChem BioAssay (NCI)
Where “and” joins values, the source holds several entries; their conditions need not be identical. Equal values may be shown once.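 Five compound concentrations were applied to cells in 96-well plates for 48 hours; endpoints were derived by simple linear interpolation of the resulting dose-response curve. GI50 = concentration required for 50% inhibition of growth. TGI denotes the concentration required for complete inhibition of growth.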

Columns and labels:
Assay in all cases: DTP human tumour cell line panel, 48 h
MALME-3M melanoma = tested on: MALME-3M melanoma
NCI-H23 lung = tested on: NCI-H23 lung
OVCAR-4 ovarian = tested on: OVCAR-4 ovarian
RPMI-8226 leukemia = tested on: RPMI-8226 leukemia
SK-MEL-2 melanoma = tested on: SK-MEL-2 melanoma
SK-OV-3 ovarian = tested on: SK-OV-3 ovarian
TK-10 renal = tested on: TK-10 renal
UACC-62 melanoma = tested on: UACC-62 melanoma
EKVX NSCLC = tested on: EKVX NSCLC

Cc1ccc(-c2c3c(N)c4c(nc3nc3c2c(C)nn3-c2ccccc2)CCC4)cc1
GI50 (MALME-3M melanoma): 18.4 µM
TGI (MALME-3M melanoma): 39.1 µM
GI50 (NCI-H23 lung): 17.5 µM
TGI (NCI-H23 lung): 40 µM
GI50 (OVCAR-4 ovarian): 2.98 µM
TGI (OVCAR-4 ovarian): 11.9 µM
GI50 (RPMI-8226 leukemia): 2.23 µM
TGI (RPMI-8226 leukemia): 5.53 µM
GI50 (SK-MEL-2 melanoma): 21.1 µM
TGI (SK-MEL-2 melanoma): 42.6 µM
GI50 (SK-OV-3 ovarian): 7.01 µM
TGI (SK-OV-3 ovarian): 15 µM
GI50 (TK-10 renal): 2.43 µM
TGI (TK-10 renal): 5.42 µM
GI50 (UACC-62 melanoma): 18.6 µM
TGI (UACC-62 melanoma): 35.7 µM

O=C1C=C(OCCCl)C(=O)c2c(O)ccc(O)c21
TGI (EKVX NSCLC): 3.36 µM and 3.73 µM
GI50 (MALME-3M melanoma): 0.215 µM
TGI (MALME-3M melanoma): 0.34 µM and 0.911 µM
GI50 (NCI-H23 lung): 1.5 µM
TGI (NCI-H23 lung): 0.503 µM and 3.22 µM
TGI (OVCAR-4 ovarian): 3.01 µM and 3.1 µM
GI50 (RPMI-8226 leukemia): 1.38 µM
TGI (RPMI-8226 leukemia): 6.78 µM and 4.08 µM
GI50 (SK-MEL-2 melanoma): 2.1 µM
TGI (SK-MEL-2 melanoma): 1.4 µM and 4.39 µM
GI50 (SK-OV-3 ovarian): 25.2 µM
GI50 (TK-10 renal): 3 µM
TGI (TK-10 renal): 5.55 µM and 6.83 µM
GI50 (UACC-62 melanoma): 0.386 µM
TGI (UACC-62 melanoma): 0.519 µM and 1.61 µM

Nc1ccccc1C#C/C=C\C#Cc1ccccc1F
GI50 (EKVX NSCLC): 10.8 µM
TGI (EKVX NSCLC): 53.2 µM
GI50 (MALME-3M melanoma): 2.62 µM
TGI (MALME-3M melanoma): 13.9 µM
GI50 (NCI-H23 lung): 10.4 µM
TGI (NCI-H23 lung): 26.6 µM
GI50 (OVCAR-4 ovarian): 24.4 µM
TGI (OVCAR-4 ovarian): > 100 µM
GI50 (RPMI-8226 leukemia): 2.66 µM
TGI (RPMI-8226 leukemia): 23.8 µM
GI50 (SK-MEL-2 melanoma): 17.3 µM
TGI (SK-MEL-2 melanoma): 47.3 µM
GI50 (SK-OV-3 ovarian): 16.7 µM
TGI (SK-OV-3 ovarian): 46 µM
GI50 (TK-10 renal): 6.42 µM
TGI (TK-10 renal): 25.6 µM
GI50 (UACC-62 melanoma): 7.72 µM
TGI (UACC-62 melanoma): 21 µM

CN(C)c1ncnc2c1ccn2C1OC(CO)C(O)C1O (stereo unspecified)
GI50 (EKVX NSCLC): 3.98 µM
TGI (EKVX NSCLC): > 92.3 µM
GI50 (MALME-3M melanoma): 92.6 µM
TGI (MALME-3M melanoma): > 100 µM
GI50 (NCI-H23 lung): 5.45 µM
TGI (NCI-H23 lung): > 100 µM
GI50 (OVCAR-4 ovarian): 2.02 µM
TGI (OVCAR-4 ovarian): 38.4 µM
GI50 (RPMI-8226 leukemia): 5.88 µM
TGI (RPMI-8226 leukemia): > 71.4 µM
GI50 (SK-MEL-2 melanoma): > 100 µM
TGI (SK-MEL-2 melanoma): > 100 µM
GI50 (SK-OV-3 ovarian): 0.884 µM
TGI (SK-OV-3 ovarian): 21.4 µM
GI50 (TK-10 renal): 1.83 µM
TGI (TK-10 renal): > 100 µM
GI50 (UACC-62 melanoma): > 100 µM
TGI (UACC-62 melanoma): > 100 µM

NCCSC(C[N+](=O)[O-])c1ccccc1Cl (stereo unspecified)
GI50 (EKVX NSCLC): 16.9 µM
TGI (EKVX NSCLC): 41.6 µM
GI50 (MALME-3M melanoma): 16.3 µM
TGI (MALME-3M melanoma): 36.7 µM
GI50 (NCI-H23 lung): 3.37 µM
TGI (NCI-H23 lung): 12 µM
GI50 (OVCAR-4 ovarian): 12.1 µM
TGI (OVCAR-4 ovarian): 30.1 µM
GI50 (RPMI-8226 leukemia): 0.727 µM
TGI (RPMI-8226 leukemia): 5.3 µM
GI50 (SK-MEL-2 melanoma): 21.9 µM
TGI (SK-MEL-2 melanoma): 51.5 µM
GI50 (SK-OV-3 ovarian): 11.7 µM
TGI (SK-OV-3 ovarian): 24 µM
GI50 (TK-10 renal): 5.59 µM
TGI (TK-10 renal): 19 µM
GI50 (UACC-62 melanoma): 13.2 µM
TGI (UACC-62 melanoma): 26.3 µM

CC(C)=CCc1cc(C2COc3cc4c(c(O)c3C2=O)C=CC(C)(C)O4)c(O)cc1O (stereo unspecified)
TGI (EKVX NSCLC): 27.5 µM
TGI (MALME-3M melanoma): 28.3 µM
TGI (NCI-H23 lung): 32.6 µM
TGI (OVCAR-4 ovarian): 24.2 µM
TGI (RPMI-8226 leukemia): 24.4 µM
TGI (SK-MEL-2 melanoma): 31.7 µM
TGI (SK-OV-3 ovarian): 29.8 µM
TGI (TK-10 renal): 31.7 µM
TGI (UACC-62 melanoma): 32.9 µM

O=c1[nH]nc(-c2ccccc2)c2c(-c3ccccc3)onc12
GI50 (EKVX NSCLC): 1.25 µM
TGI (EKVX NSCLC): > 100 µM
GI50 (MALME-3M melanoma): 0.751 µM
TGI (MALME-3M melanoma): > 90 µM
GI50 (NCI-H23 lung): 4.83 µM
TGI (NCI-H23 lung): > 100 µM
GI50 (OVCAR-4 ovarian): 2.4 µM
TGI (OVCAR-4 ovarian): > 100 µM
GI50 (RPMI-8226 leukemia): 0.474 µM
TGI (RPMI-8226 leukemia): > 55.4 µM
TGI (SK-MEL-2 melanoma): > 100 µM
GI50 (SK-OV-3 ovarian): 0.981 µM
TGI (SK-OV-3 ovarian): 53.6 µM
GI50 (TK-10 renal): 0.999 µM
TGI (TK-10 renal): > 100 µM
GI50 (UACC-62 melanoma): 0.43 µM
TGI (UACC-62 melanoma): > 100 µM

CCc1c2c(nc3ccc(OCc4ccc(B5OC(C)(C)C(C)(C)O5)cc4)cc13)-c1cc3c(c(=O)n1C2)COC(=O)[C@]3(O)CC
GI50 (EKVX NSCLC): 0.431 µM
TGI (EKVX NSCLC): > 100 µM
GI50 (MALME-3M melanoma): 0.134 µM
TGI (MALME-3M melanoma): 3.07 µM
GI50 (NCI-H23 lung): 0.0248 µM
TGI (NCI-H23 lung): 0.219 µM
GI50 (OVCAR-4 ovarian): 0.192 µM
TGI (OVCAR-4 ovarian): > 100 µM
GI50 (RPMI-8226 leukemia): 0.312 µM
TGI (RPMI-8226 leukemia): > 100 µM
GI50 (SK-MEL-2 melanoma): 0.825 µM
TGI (SK-MEL-2 melanoma): > 24.6 µM
GI50 (TK-10 renal): 1.83 µM
TGI (TK-10 renal): > 100 µM
GI50 (UACC-62 melanoma): < 0.01 µM
TGI (UACC-62 melanoma): 0.186 µM

CN(C)N=Nc1nn(C(=O)Nc2ccc(Cc3ccccc3)cc2)c2ccccc12
GI50 (MALME-3M melanoma): 6.6 µM
TGI (MALME-3M melanoma): > 100 µM
GI50 (NCI-H23 lung): 7.58 µM
TGI (NCI-H23 lung): > 100 µM
TGI (OVCAR-4 ovarian): > 100 µM
GI50 (RPMI-8226 leukemia): 5.06 µM
TGI (RPMI-8226 leukemia): > 100 µM
GI50 (SK-MEL-2 melanoma): 2.07 µM
TGI (SK-MEL-2 melanoma): > 100 µM
GI50 (SK-OV-3 ovarian): > 100 µM
TGI (SK-OV-3 ovarian): > 100 µM
GI50 (TK-10 renal): > 100 µM
TGI (TK-10 renal): > 100 µM
GI50 (UACC-62 melanoma): 0.0385 µM
TGI (UACC-62 melanoma): 1.65 µM

Cc1ccc([N+](=O)[O-])c2c(NCCC[N+](C)(C)[O-])ccnc12
TGI (EKVX NSCLC): > 100 µM
TGI (MALME-3M melanoma): > 100 µM
TGI (NCI-H23 lung): > 100 µM
TGI (OVCAR-4 ovarian): 59.2 µM
TGI (RPMI-8226 leukemia): > 100 µM
TGI (SK-MEL-2 melanoma): > 100 µM
TGI (SK-OV-3 ovarian): > 100 µM
TGI (TK-10 renal): > 100 µM

COc1ccc(C=C2C(=O)NC(=O)NC2=O)cc1OCc1ccccc1
GI50 (EKVX NSCLC): 85.2 µg/mL
GI50 (MALME-3M melanoma): 54.5 µg/mL
GI50 (NCI-H23 lung): 31.7 µg/mL
GI50 (OVCAR-4 ovarian): 35.6 µg/mL
GI50 (RPMI-8226 leukemia): 17.8 µg/mL
TGI (RPMI-8226 leukemia): 48.8 µg/mL
GI50 (SK-MEL-2 melanoma): 25.6 µg/mL
TGI (SK-MEL-2 melanoma): 79.4 µg/mL

C=C1C(=O)O[C@H]2[C@H]1CC/C(CNC(=O)/C=C/c1ccc(Cl)cc1Cl)=C\CC[C@@]1(C)O[C@@H]21
GI50 (EKVX NSCLC): 1.55 µM
TGI (EKVX NSCLC): 3.1 µM
GI50 (MALME-3M melanoma): 1.29 µM
TGI (MALME-3M melanoma): 2.7 µM
GI50 (NCI-H23 lung): 1.4 µM
TGI (NCI-H23 lung): 3.2 µM
GI50 (OVCAR-4 ovarian): 1.31 µM
TGI (OVCAR-4 ovarian): 3.01 µM
GI50 (RPMI-8226 leukemia): 0.329 µM
TGI (RPMI-8226 leukemia): 1.54 µM
GI50 (SK-MEL-2 melanoma): 1.55 µM
TGI (SK-MEL-2 melanoma): 3.63 µM
GI50 (SK-OV-3 ovarian): 3.33 µM
TGI (SK-OV-3 ovarian): 13 µM
GI50 (TK-10 renal): 1.55 µM
TGI (TK-10 renal): 2.9 µM
GI50 (UACC-62 melanoma): 1.33 µM
TGI (UACC-62 melanoma): 2.9 µM

O=C1NC(SCc2ccc(F)cc2)=N/C1=C/c1cccc(OCc2ccc(Cl)cc2)c1
GI50 (EKVX NSCLC): 8.86 µM
TGI (EKVX NSCLC): > 100 µM
GI50 (MALME-3M melanoma): 26.5 µM
TGI (MALME-3M melanoma): > 100 µM
GI50 (NCI-H23 lung): 16.9 µM
TGI (NCI-H23 lung): > 100 µM
GI50 (OVCAR-4 ovarian): 2.07 µM
TGI (OVCAR-4 ovarian): 4.85 µM
GI50 (RPMI-8226 leukemia): > 100 µM
TGI (RPMI-8226 leukemia): > 100 µM
GI50 (SK-MEL-2 melanoma): > 100 µM
TGI (SK-MEL-2 melanoma): > 100 µM
GI50 (SK-OV-3 ovarian): 36.9 µM
TGI (SK-OV-3 ovarian): > 100 µM
GI50 (TK-10 renal): 6.07 µM
TGI (TK-10 renal): 87.8 µM
GI50 (UACC-62 melanoma): > 100 µM
TGI (UACC-62 melanoma): > 100 µM

O=C(CN1C(=O)S/C(=C\C(Cl)=C\c2ccccc2)C1=O)NCCCn1ccnc1
GI50 (EKVX NSCLC): 2.43 µM
TGI (EKVX NSCLC): 6.69 µM
GI50 (MALME-3M melanoma): 1.82 µM
TGI (MALME-3M melanoma): 4.9 µM
GI50 (NCI-H23 lung): 2.26 µM
TGI (NCI-H23 lung): 6.88 µM
GI50 (OVCAR-4 ovarian): 1.86 µM
TGI (OVCAR-4 ovarian): 4.39 µM
GI50 (RPMI-8226 leukemia): 1.78 µM
TGI (RPMI-8226 leukemia): 6.74 µM
GI50 (SK-MEL-2 melanoma): 2.8 µM
TGI (SK-MEL-2 melanoma): 9.55 µM
GI50 (SK-OV-3 ovarian): 5.23 µM
TGI (SK-OV-3 ovarian): > 100 µM
GI50 (TK-10 renal): 2.3 µM
TGI (TK-10 renal): 4.53 µM
GI50 (UACC-62 melanoma): 1.67 µM
TGI (UACC-62 melanoma): 3.73 µM

COC1C(O)C(C)OC(O[C@@H]2C[C@H]3CC[C@@H]4[C@H](CC[C@]5(C)[C@@H](C6=CC(=O)OC6)CC[C@]45O)[C@@]3(C)[C@H](O)C2)C1O (stereo partly specified)
TGI (EKVX NSCLC): 0.168 µM
TGI (MALME-3M melanoma): 0.119 µM
TGI (NCI-H23 lung): 0.0231 µM
TGI (OVCAR-4 ovarian): 0.0379 µM
TGI (RPMI-8226 leukemia): 0.0725 µM
TGI (SK-MEL-2 melanoma): 1.7 µM
TGI (SK-OV-3 ovarian): 0.347 µM
TGI (TK-10 renal): 0.896 µM
TGI (UACC-62 melanoma): 0.647 µM
